Source: article PMC6035319 (Saudi Pharmaceutical Journal : SPJ, 2018)

How the values were obtained:
CYP1A2 = target: T1, CYP1A2 (Homo sapiens, UniProt P05177); assay: HPLC of acetaminophen formed from phenacetin in pooled human liver microsomes; type: biochemical
T1 sequence (P05177 2-516): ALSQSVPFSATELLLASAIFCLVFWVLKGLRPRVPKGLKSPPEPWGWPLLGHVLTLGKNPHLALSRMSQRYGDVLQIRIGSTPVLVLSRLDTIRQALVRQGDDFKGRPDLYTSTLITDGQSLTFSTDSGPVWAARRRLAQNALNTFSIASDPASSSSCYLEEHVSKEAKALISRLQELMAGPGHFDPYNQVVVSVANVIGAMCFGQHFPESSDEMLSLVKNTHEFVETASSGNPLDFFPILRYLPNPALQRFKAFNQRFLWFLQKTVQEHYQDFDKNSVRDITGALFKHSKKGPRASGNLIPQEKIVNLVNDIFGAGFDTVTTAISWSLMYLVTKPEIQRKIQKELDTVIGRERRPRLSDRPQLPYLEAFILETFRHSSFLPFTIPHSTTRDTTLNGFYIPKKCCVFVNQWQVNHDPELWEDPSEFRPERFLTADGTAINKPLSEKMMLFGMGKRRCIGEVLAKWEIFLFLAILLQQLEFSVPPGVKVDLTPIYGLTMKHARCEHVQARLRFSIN

CYP3A4 = CYP3A4 (Homo sapiens, UniProt P08684); type: biochemical
CYP3A4, sequence (P08684 2-503): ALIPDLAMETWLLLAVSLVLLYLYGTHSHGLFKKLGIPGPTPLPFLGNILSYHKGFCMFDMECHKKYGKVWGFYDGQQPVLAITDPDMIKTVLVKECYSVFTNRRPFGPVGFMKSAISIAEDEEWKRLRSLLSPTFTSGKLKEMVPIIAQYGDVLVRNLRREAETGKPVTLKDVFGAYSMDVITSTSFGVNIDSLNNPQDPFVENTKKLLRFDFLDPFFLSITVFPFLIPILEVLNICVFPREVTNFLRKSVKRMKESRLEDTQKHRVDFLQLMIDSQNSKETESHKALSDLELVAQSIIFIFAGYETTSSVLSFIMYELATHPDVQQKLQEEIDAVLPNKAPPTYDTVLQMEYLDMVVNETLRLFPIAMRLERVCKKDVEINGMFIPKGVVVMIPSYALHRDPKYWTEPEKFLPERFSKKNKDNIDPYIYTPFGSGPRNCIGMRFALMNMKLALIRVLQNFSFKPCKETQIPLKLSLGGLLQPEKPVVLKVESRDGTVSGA

How did the IC50 (CYP1A2) turn out when CC1=CC(=O)C(C(C)C)=CC1=O [thymoquinone] was run?
The IC50 was 26.5 ± 2.9 µM.

And the IC50 (CYP3A4)?
Its IC50 is 25.2 ± 3.1 µM.
